From patent US20250019769A1, “REPURPOSING DRUGS FOR NON-SMALL CELL LUNG CANCER” (WEST VIRGINIA UNIVERSITY BOARD OF GOVERNORS ON BEHALF OF …, priority 2021, published 2025)
Read-outs that look alike come from different tables or passages of the source.

Key:
[1] = test system: gene expression of CD27, PD1, CTLA4, or PDL1; assay: Pearson correlation of drug-response measurements with gene expression of ICIs in human NSCLC epithelial cell lines; settings: for correlation of EC50 with CD27 mRNA expression: p<0.05, Pearson's correlation test, NSCLC cell lines (n=79, FIG. 18B)
From the text: (§1) The PRISM dataset. was obtained from the DepMap portal (https://depmap.org/portal/download/, PRISM repurposing 19Q4, accessed on 1 Apr. 2021). Carboplatin, cisplatin, docetaxel, erlotinib, etoposide, gefitinib, gemcitabine, paclitaxel (Taxol), pemetrexed, and vinorelbine were commonly used chemotherapeutic drugs in NSCLC treatment, the analysis focused on these ten regiments. Drug activity measurements, including IC50, ln(IC50), EC50, and ln(EC50), were used in the analysis. The available CCLE NSCLC cell lines were divided into three groups by the drug activity measurements: sensitive, resistant, and intermediate.
(§2) Drug activity measurements were generated in the GDSC Project. (https://www.cancerrxgene.org/downloads/bulk_download, accessed on 15 Apr. 2021). IC50 and ln(IC50) were the main metrics used in this analysis. The available CCLE NSCLC cell lines were divided into three groups by the drug activity measurements in the GDSC1/2 datasets, i.e., sensitive, resistant, and intermediate.
RStudio (version 1.4.1106), an integrated development environment for R, was used as the main tool for performing the statistical analyses. A two-tailed, unpaired Student's t-test was used to evaluate the significance of differential expression between two groups. Survival analysis and curves were generated using the Kaplan-Meier method, and log-rank tests were used to assess the difference in survival probability between different groups. The univariate and multivariate Cox regression analyses were used in the prognostic evaluation and curve generation with R packages “survival”, “survminer”, and “ggplot2”. The strength of the linear relationship between two sample groups was measured with Pearson's correlation test. Results in statistical tests were considered significant with a p-value<0.05.
Several targeted therapeutic candidates were identified with CMap.

[2] = test system: NSCLC cells; settings: cited from earlier work
[3] = test system: xenograft mouse model of lung cancer; settings: cited from earlier work
[4] = test system: NSCLC; settings: combination with gefitinib in NSCLC; cited from earlier work
[5] = test system: mRNA expression of CD27, PD1, or PDL1; assay: Pearson correlation of drug concentration (PRISM, GDSC1, GDSC2) with mRNA expression of immune checkpoint genes in CCLE NSCLC cell lines; set-up: species or system human; settings: p<0.05, Pearson's correlation, datasets PRISM, CCLE NSCLC cell lines (n=117)
From the text: The growth inhibitory activity of 4,518 drugs was quantified in 578 human cancer cell lines using the PRISM molecular barcoding and multiplexed screening method. The PRISM dataset is available at the Cancer Dependency Map portal (https://depmap.org/portal/download/, accessed on 1 Apr. 2021). Drug responses of 9 commonly used chemotherapeutic regimens in treating NSCLC were included: carboplatin, cisplatin, paclitaxel, docetaxel, gemcitabine, vinorelbine, etoposide, gefitinib, and erlotinib. For each drug, cell lines with IC50 or EC50 value higher than the maximum dose were defined as resistant; cell lines with IC50 or EC50 value lower than the minimum dose were defined as sensitive. The remaining cell lines were divided into groups of resistant, sensitive, or partial response by using the mean±0.5 standard deviation (SD) of the drug activity metrics, including IC50, ln(IC50), EC50, or ln(EC50) values. Cell lines with a drug activity value less than the mean−0.5 SD were defined as sensitive to the drug, and those with a drug activity value between the mean+0.5 SD and the mean−0.5 SD were defined as having a partial response to the drug. Cell lines with a drug activity value greater than the mean+0.5 SD were defined as resistant to the drug. This categorization corresponds to the RECIST 1.1 system (i.e., complete response, partial response, and stable disease/disease progression) in evaluating chemotherapeutic response in solid tumors. Drug screening data was downloaded from Genomics of Drug Sensitivity in Cancer (GDSC) Project (https://www.cancerrxgene.org/downloads/bulk_download, accessed on 15 Apr. 2021). The GDSC Project screened more than 1,000 genetically characterized human cancer cell lines with a wide range of anti-cancer therapeutic agents. Among the commonly used chemotherapeutic regimens in treating NSCLC drugs, […] were found in GDSC1, including cisplatin, docetaxel, erlotinib, etoposide, gefitinib, gemcitabine, pemetrexed, and vinorelbine; 7 were found in GDSC2, including cisplatin, docetaxel, erlotinib, gefitinib, gemcitabine, paclitaxel, and vinorelbine. For each drug, cell lines were defined as resistant, sensitive, or partial response by using the mean±0.5 SD of the IC50 values as described above. Various statistical methods can be utilized. Statistical analysis was performed using Rstudio version 1.4.1106. […] Survival analysis was performed using Kaplan-Meier analysis with the survival package in R. Log-rank tests were used to assess the difference in survival probability from different groups in Kaplan-Meier analyses. The genes in the networks were evaluated with Cox proportional hazard model and Kaplan-Meier analysis. Pearson's correlation test was used to find the relationship be-tween two variables. The multivariate Cox regression analysis was used to build the model of risk-scores. […] Pearson's correlation test was used to find the relationship between two variables. One-tailed two proportion z-test was used to compare if two proportions are the same.

[6] = test system: advanced solid tumors including NSCLC; settings: single-agent, cited from earlier work
[7] = test system: human NSCLC epithelial cell lines; assay: PRISM/GDSC drug response in human NSCLC epithelial cell lines (n=135); type: cell-based; settings: average in human NSCLC epithelial cell lines (FIG. 18C)
From the text: as §1, §2

[8] = test system: CCLE NSCLC cell lines; assay: PRISM drug screen, growth inhibitory activity in CCLE NSCLC cell lines; type: cell-based; settings: Homo sapiens, read-out: average IC50 or EC50 value
From the text: The growth inhibitory activity of 4,518 drugs was quantified in 578 human cancer cell lines using the PRISM molecular barcoding and multiplexed screening method. The PRISM dataset is available at the Cancer Dependency Map portal (https://depmap.org/portal/download/, accessed on 1 Apr. 2021). Drug responses of 9 commonly used chemotherapeutic regimens in treating NSCLC were included: carboplatin, cisplatin, paclitaxel, docetaxel, gemcitabine, vinorelbine, etoposide, gefitinib, and erlotinib. For each drug, cell lines with IC50 or EC50 value higher than the maximum dose were defined as resistant; cell lines with IC50 or EC50 value lower than the minimum dose were defined as sensitive. The remaining cell lines were divided into groups of resistant, sensitive, or partial response by using the mean±0.5 standard deviation (SD) of the drug activity metrics, including IC50, ln(IC50), EC50, or ln(EC50) values. Cell lines with a drug activity value less than the mean−0.5 SD were defined as sensitive to the drug, and those with a drug activity value between the mean+0.5 SD and the mean−0.5 SD were defined as having a partial response to the drug. Cell lines with a drug activity value greater than the mean+0.5 SD were defined as resistant to the drug. This categorization corresponds to the RECIST 1.1 system (i.e., complete response, partial response, and stable disease/disease progression) in evaluating chemotherapeutic response in solid tumors.
The growth inhibitory activity of 4,518 drugs was quantified in 578 human cancer cell lines using the PRISM molecular barcoding and multiplexed screening method. The PRISM dataset is available at the Cancer Dependency Map portal (https://depmap.org/portal/download/, accessed on 1 Apr. 2021). Drug responses of 9 commonly used chemotherapeutic regimens in treating NSCLC were included in this study: carboplatin, cisplatin, paclitaxel, docetaxel, gemcitabine, vinorelbine, etoposide, gefitinib, and erlotinib. For each drug, cell lines with IC50 or EC50 value higher than the maximum dose were defined as resistant; cell lines with IC50 or EC50 value lower than the minimum dose were defined as sensitive. The remaining cell lines were divided into groups of resistant, sensitive, or partial response by using the mean±0.5 standard deviation (SD) of the drug activity metrics, including IC50, ln(IC50), EC50, or ln(EC50) values. Cell lines with a drug activity value less than the mean−0.5 SD were defined as sensitive to the drug, and those with a drug activity value between the mean+0.5 SD and the mean−0.5 SD were defined as having a partial response to the drug. Cell lines a drug activity value greater than the mean+0.5 SD were defined as resistant to the drug. This categorization corresponds to the RECIST 1.1 system (i.e., complete response, partial response, and stable disease/disease progression) in evaluating chemotherapeutic response in solid tumors.

[9] = test system: FRα (FOSL1)-positive advanced solid tumors; settings: patient derived xenograft models and phase I study; cited from earlier work
[10] = test system: NSCLC; settings: stage IIIB, after chemoradiation, cited from earlier work
[11] = test system: resected NSCLC tumors; settings: neoadjuvant; 9 of 20 resected NSCLC tumors, stages I, II, and IIIA; cited from earlier work
[12] = CCLE NSCLC cell lines, 7-gene network study (FIG. 13C)
[13] = average over CCLE NSCLC cell lines (n=117), 8 doses 0.0006 μM to 10 μM

Compound: Cc1cnc(Nc2ccc(OCCN3CCCC3)cc2)nc1Nc1cccc(S(=O)(=O)NC(C)(C)C)c1 [TG-101348]
- association with PDL1 gene expression ([1]; human NSCLC epithelial cell lines): inhibitory association
- PDL1 protein expression [2]: reduced PDL1 protein expression
- erlotinib-resistance [2]: reversed erlotinib-resistance
- radiosensitization and EMT blockade [3]: mediated radiosensitization and EMT blockade

Compound: CC(C)c1ccccc1Cc1cc(C(=O)Nc2ccc(S(=O)(=O)c3ccccc3C(C)(C)C)cc2)c(O)c(O)c1O [TW-37]
- effect on pro-apoptosis and anti-migration ability of gefitinib [4]: enhanced

Compound: C[C@H]1[C@H](NC(=O)/C(=N\OC(C)(C)C(=O)O)c2csc(N)n2)C(=O)N1S(=O)(=O)O [aztreonam]
- correlation of drug concentration [IC50, EC50, ln(IC50), or ln(EC50)] with mRNA expression of CD27, PD1, or PDL1 [5]: significant negative correlation

Compound: CO[C@@H](C(=O)N1Cc2n[nH]c(NC(=O)c3ccc(N4CCN(C)CC4)cc3)c2C1)c1ccccc1 [danusertib]
- anti-tumor activity ([6]; common solid tumor types): marginal anti-tumor activity
- tolerability ([6]; phase I and phase II clinical studies): well tolerated
- correlation of EC50 with CD27 mRNA expression [1]: significant negative correlation
- correlation of EC50 with CD27 mRNA expression ([1]; listed as Danusertib): inhibitory association
- EC50 [7]: < 1000 nM
- IC50 [7]: < 1000 nM

Compound: Cc1nc(Nc2ncc(C(=O)Nc3c(C)cccc3Cl)s2)cc(N2CCN(CCO)CC2)n1 [dasatinib]
- IC50 [8, 12]: ≤ 1000 nM

Compound: CCN(CC)C(=S)SSC(=S)N(CC)CC [disulfiram]
- IC50 [8, 13]: < 1000 nM

Compound: COc1cccc2c1C(=O)c1c(O)c3c(c(O)c1C2=O)C[C@@](O)(C(=O)CO)C[C@@H]3O[C@H]1C[C@H](N)[C@H](O)[C@H](C)O1 [doxorubicin]
- IC50 [8, 13]: < 1000 nM

Compound: CC1CC(OC(=O)c2ccccc2O)CC(C)(C)C1 (stereo not shown) [homosalate]
- IC50 [8, 12]: ≤ 1000 nM

Compound: CCc1c2c(nc3ccc(OC(=O)N4CCC(N5CCCCC5)CC4)cc13)-c1cc3c(c(=O)n1C2)COC(=O)[C@]3(O)CC [irinotecan]
- correlation of drug concentration [IC50, EC50, ln(IC50), or ln(EC50)] with mRNA expression of CD27, PD1, or PDL1 [5]: significant negative correlation

Compound: C[C@]12O[C@H](C[C@]1(O)CO)n1c3ccccc3c3c4c(c5c6ccccc6n2c5c31)CNC4=O [lestaurtinib]
- IC50 [8, 12]: ≤ 1000 nM
- EC50 [7]: < 1000 nM
- IC50 [7]: < 1000 nM

Compound: O=C1c2c(O)ccc(O)c2C(=O)c2c(NCCNCCO)ccc(NCCNCCO)c21 [mitoxantrone]
- IC50 [8, 13]: < 1000 nM
- correlation of drug concentration [IC50, EC50, ln(IC50), or ln(EC50)] with mRNA expression of CD27, PD1, or PDL1 [5]: significant negative correlation

Compound: OC1(c2ccc(Cl)c(C(F)(F)F)c2)CCN(CCCC(c2ccc(F)cc2)c2ccc(F)cc2)CC1 [penfluridol]
- IC50 [8, 12]: ≤ 1000 nM

Compound: COc1cc(/C=C/C(=O)N2CCC=CC2=O)cc(OC)c1OC [piperlongumine]
- correlation of drug concentration [IC50, EC50, ln(IC50), or ln(EC50)] with mRNA expression of CD27, PD1, or PDL1 [5]: significant negative correlation

Compound: COc1ccc(C[C@H](N)C(=O)N[C@H]2[C@@H](O)[C@H](n3cnc4c(N(C)C)ncnc43)O[C@@H]2CO)cc1 [puromycin]
- correlation of drug concentration [IC50, EC50, ln(IC50), or ln(EC50)] with mRNA expression of CD27, PD1, or PDL1 [5]: significant negative correlation

Compound: CC(/C=C/C(=O)NO)=C\[C@@H](C)C(=O)c1ccc(N(C)C)cc1 [trichostatin A]
- correlation of drug concentration [IC50, EC50, ln(IC50), or ln(EC50)] with mRNA expression of CD27, PD1, or PDL1 [5]: significant negative correlation

Compound: MORAb-202
- antitumor response [9]: robust antitumor response

Compound: durvalumab: anti-PD-L1
- median OS ([10]; durvalumab arm): not reached
- overall survival HR vs placebo arm ([10]; phase III randomized trial): 0.69 (95% CI 0.55-0.86)

Compound: ivermectin
- correlation of drug concentration [IC50, EC50, ln(IC50), or ln(EC50)] with mRNA expression of CD27, PD1, or PDL1 [5]: significant negative correlation

Compound: nivolumab: PD-1 inhibitor
- pathological response [11]: 45%
